# Experimental data as given in PMC7206119, “RIP1 inhibition blocks inflammatory diseases but not tumor growth or metastases” (Cell Death and Differentiation, 2019).
# How the values were obtained:
# Assay in all cases: biochemical
# Parameters in all cases: Thermo Fisher SelectScreen kinase panel: Z'-LYTE and Adapta activity, LanthaScreen binding
# FRK = FRK (Homo sapiens, UniProt P42685)
# Method: (§1) 5 88 GNE684 was tested in Thermo Fisher Scientific SelectScreen assay (Madison, WI) 89 against 221 representative kinases at a concentration of 10 µM, which is 476-fold greater than the Ki app 90 for GNE684 against human RIP1 in the RIP1 enzyme 91 assay. The kinase assays were carried out using Z'-LYTE and Adapta activity and 92 LanthaScreen binding assays (Thermo Fisher Scientific, Madison WI) following 93 protocols developed and performed by Thermo Fisher Scientific 94 (https://www.thermofisher.com/us/en/home/products-and-services/services/custom-95 services/screening-and-profiling-services/selectscreen-profiling-service/selectscreen-96 kinase-profiling-service.html). 97 GNE684 was also tested against 468 kinases in the KINOMEscan scanMAX kinase 98 binding assay panel at a concentration of 10 µM following protocols developed and 99 performed by DiscoverX (http://www.discoverx.com/kinase_profiling).
# DCAMKL2 = molecular target: T1, DCAMKL2 (Homo sapiens, UniProt Q8N568)
# T1 construct: gene DCLK2
# Method: as §1
# p38-delta = molecular target: T2, p38-delta (Homo sapiens, UniProt O15264)
# T2 construct: gene MAPK13
# Method: as §1
# CAMKK1 = CAMKK1 (Homo sapiens, UniProt Q8N5S9)
# Method: as §1
# CK1_gamma1 = molecular target: T3, CK1_gamma1 (Homo sapiens, UniProt Q9HCP0)
# T3 construct: gene CSNK1G1
# Method: as §1
# ROCK2 = ROCK2 (Homo sapiens, UniProt O75116)
# Method: as §1
# JNK2 = molecular target: T4, JNK2 (Homo sapiens, UniProt P45984)
# T4 construct: gene MAPK9
# Method: as §1
# PIM1 = PIM1 (Homo sapiens, UniProt P11309)
# Method: as §1
# p38-gamma = molecular target: T5, p38-gamma (Homo sapiens, UniProt P53778)
# T5 construct: gene MAPK12
# Method: as §1
# Aurora_B = molecular target: T6, Aurora_B (Homo sapiens, UniProt Q96GD4)
# T6 construct: gene AURKB
# Method: as §1
# AKT1 = AKT1 (Homo sapiens, UniProt P31749)
# Method: as §1
# SGK2 = SGK2 (Homo sapiens, UniProt Q9HBY8)
# Method: as §1
# DYRK1A = DYRK1A (Homo sapiens, UniProt Q13627)
# Method: as §1
# RSK3 = molecular target: T7, RSK3 (Homo sapiens, UniProt Q15349)
# T7 construct: gene RPS6KA2
# Method: as §1
# PAK3 = PAK3 (Homo sapiens, UniProt O75914)
# Method: as §1
# EPHA1 = EPHA1 (Homo sapiens, UniProt P21709)
# Method: as §1
# PAK6 = PAK6 (Homo sapiens, UniProt Q9NQU5)
# Method: as §1
# CDK2/cyclinA = CDK2/cyclinA (Homo sapiens, UniProt P24941)
# Method: as §1
# FGFR1 = FGFR1 (Homo sapiens, UniProt P11362)
# Method: as §1
# MYLK3(caMLCK) = molecular target: T8, MYLK3(caMLCK) (Homo sapiens, UniProt Q32MK0)
# T8 construct: cardiac MLCK
# Method: as §1
# TAO2 = molecular target: T9, TAO2 (Homo sapiens, UniProt Q9UL54)
# T9 construct: gene TAOK2
# Method: as §1
# ACVR1B = ACVR1B (Homo sapiens, UniProt P36896)
# Method: as §1
# CDK9/cyclinT1 = CDK9/cyclinT1 (Homo sapiens, UniProt P50750)
# Method: as §1
# Sequence of ACVR1B (P36896 whole entry): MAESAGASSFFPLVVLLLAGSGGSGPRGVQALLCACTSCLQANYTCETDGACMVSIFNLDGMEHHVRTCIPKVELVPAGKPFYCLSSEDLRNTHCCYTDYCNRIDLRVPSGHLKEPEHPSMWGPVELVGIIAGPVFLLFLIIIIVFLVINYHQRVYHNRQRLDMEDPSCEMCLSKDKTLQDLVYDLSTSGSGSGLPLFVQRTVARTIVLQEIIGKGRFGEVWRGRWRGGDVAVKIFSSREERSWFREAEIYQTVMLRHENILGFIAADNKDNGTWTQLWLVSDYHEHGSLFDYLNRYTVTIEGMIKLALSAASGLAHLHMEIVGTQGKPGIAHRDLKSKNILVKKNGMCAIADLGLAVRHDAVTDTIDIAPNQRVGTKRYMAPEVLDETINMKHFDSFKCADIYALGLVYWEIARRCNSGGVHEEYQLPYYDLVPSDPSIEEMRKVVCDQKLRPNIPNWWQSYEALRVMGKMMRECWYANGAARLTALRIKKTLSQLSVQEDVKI
# Sequence of PIM1 (P11309 whole entry): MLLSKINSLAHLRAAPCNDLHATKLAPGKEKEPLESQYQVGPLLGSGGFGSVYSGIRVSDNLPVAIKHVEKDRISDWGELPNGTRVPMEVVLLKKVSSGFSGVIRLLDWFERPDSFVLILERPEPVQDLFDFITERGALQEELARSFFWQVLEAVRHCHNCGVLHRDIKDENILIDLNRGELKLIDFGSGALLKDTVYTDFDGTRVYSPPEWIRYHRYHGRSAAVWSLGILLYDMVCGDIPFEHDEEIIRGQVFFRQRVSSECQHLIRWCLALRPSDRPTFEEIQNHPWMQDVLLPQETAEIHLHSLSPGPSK
# Sequence of CDK9/cyclinT1 (P50750 whole entry): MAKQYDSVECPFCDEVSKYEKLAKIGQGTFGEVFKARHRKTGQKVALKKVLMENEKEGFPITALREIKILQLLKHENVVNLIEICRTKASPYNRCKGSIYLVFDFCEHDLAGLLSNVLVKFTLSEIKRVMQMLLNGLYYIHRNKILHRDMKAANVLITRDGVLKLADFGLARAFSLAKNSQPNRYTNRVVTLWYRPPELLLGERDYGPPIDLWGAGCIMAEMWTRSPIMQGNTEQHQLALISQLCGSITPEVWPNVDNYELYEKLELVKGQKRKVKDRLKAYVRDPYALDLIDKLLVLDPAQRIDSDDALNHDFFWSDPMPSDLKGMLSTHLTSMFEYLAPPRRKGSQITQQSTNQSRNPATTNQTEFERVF
# Sequence of CDK9/cyclinT1 (O60563 whole entry partner): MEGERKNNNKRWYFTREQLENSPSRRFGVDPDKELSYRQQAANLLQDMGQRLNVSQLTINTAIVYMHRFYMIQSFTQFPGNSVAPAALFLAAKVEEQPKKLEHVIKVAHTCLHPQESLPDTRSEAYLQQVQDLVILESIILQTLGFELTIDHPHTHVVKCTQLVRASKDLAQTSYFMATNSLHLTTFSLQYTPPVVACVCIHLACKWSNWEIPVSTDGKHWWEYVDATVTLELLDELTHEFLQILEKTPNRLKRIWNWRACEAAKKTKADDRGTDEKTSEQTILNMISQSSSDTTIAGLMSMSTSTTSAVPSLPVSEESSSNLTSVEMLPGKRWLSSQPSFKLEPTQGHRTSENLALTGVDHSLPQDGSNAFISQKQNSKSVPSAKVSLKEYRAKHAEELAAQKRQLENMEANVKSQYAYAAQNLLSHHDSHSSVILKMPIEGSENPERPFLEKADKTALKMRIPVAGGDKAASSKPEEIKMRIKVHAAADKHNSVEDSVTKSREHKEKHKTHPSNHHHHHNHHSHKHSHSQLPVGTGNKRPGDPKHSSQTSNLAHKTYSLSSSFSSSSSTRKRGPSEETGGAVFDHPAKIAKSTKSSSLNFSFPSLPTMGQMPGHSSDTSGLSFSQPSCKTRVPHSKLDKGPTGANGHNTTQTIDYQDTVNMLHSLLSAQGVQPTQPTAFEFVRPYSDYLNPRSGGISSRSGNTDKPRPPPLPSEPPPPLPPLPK
# T1 sequence (Q8N568 whole entry): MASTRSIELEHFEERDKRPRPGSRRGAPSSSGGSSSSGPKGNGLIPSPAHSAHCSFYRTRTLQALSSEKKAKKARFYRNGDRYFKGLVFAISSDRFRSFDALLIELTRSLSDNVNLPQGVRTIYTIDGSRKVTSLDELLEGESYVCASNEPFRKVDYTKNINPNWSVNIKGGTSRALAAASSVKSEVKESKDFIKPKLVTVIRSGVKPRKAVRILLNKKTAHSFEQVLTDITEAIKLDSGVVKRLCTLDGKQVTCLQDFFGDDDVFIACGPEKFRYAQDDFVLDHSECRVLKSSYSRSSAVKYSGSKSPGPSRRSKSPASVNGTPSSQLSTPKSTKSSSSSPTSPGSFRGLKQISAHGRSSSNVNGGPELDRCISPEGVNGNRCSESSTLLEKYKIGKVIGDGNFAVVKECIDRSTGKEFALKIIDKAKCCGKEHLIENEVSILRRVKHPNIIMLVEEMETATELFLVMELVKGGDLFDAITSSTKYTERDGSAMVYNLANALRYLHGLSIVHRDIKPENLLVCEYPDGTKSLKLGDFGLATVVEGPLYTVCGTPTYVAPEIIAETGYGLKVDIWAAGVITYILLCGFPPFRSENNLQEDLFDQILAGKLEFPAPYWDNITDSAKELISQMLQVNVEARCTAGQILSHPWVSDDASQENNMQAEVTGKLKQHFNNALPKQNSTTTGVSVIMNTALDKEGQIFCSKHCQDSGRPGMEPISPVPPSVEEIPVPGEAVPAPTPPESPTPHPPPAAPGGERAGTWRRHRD
# T8 sequence (Q32MK0 whole entry): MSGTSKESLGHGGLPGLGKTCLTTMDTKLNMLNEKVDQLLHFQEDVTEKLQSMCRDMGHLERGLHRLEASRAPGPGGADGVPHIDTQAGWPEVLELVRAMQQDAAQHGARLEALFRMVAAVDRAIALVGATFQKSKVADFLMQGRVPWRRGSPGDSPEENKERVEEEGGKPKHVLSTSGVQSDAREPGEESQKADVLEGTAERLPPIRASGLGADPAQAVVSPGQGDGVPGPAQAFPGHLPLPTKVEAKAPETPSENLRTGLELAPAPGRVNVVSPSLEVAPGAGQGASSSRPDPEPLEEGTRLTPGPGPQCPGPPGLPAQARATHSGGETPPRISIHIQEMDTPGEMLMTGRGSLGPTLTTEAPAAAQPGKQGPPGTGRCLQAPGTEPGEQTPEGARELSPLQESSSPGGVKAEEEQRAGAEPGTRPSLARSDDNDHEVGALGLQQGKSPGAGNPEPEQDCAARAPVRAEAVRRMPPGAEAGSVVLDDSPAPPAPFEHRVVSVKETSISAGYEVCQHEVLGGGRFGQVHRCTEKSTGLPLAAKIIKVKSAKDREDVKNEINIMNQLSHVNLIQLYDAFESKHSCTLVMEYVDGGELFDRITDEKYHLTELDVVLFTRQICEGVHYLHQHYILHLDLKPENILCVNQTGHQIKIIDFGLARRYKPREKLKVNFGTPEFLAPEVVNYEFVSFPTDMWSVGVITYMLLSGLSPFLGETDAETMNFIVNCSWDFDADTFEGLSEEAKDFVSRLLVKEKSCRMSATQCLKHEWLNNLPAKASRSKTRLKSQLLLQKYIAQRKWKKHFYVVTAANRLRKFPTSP
# Sequence of ROCK2 (O75116 whole entry): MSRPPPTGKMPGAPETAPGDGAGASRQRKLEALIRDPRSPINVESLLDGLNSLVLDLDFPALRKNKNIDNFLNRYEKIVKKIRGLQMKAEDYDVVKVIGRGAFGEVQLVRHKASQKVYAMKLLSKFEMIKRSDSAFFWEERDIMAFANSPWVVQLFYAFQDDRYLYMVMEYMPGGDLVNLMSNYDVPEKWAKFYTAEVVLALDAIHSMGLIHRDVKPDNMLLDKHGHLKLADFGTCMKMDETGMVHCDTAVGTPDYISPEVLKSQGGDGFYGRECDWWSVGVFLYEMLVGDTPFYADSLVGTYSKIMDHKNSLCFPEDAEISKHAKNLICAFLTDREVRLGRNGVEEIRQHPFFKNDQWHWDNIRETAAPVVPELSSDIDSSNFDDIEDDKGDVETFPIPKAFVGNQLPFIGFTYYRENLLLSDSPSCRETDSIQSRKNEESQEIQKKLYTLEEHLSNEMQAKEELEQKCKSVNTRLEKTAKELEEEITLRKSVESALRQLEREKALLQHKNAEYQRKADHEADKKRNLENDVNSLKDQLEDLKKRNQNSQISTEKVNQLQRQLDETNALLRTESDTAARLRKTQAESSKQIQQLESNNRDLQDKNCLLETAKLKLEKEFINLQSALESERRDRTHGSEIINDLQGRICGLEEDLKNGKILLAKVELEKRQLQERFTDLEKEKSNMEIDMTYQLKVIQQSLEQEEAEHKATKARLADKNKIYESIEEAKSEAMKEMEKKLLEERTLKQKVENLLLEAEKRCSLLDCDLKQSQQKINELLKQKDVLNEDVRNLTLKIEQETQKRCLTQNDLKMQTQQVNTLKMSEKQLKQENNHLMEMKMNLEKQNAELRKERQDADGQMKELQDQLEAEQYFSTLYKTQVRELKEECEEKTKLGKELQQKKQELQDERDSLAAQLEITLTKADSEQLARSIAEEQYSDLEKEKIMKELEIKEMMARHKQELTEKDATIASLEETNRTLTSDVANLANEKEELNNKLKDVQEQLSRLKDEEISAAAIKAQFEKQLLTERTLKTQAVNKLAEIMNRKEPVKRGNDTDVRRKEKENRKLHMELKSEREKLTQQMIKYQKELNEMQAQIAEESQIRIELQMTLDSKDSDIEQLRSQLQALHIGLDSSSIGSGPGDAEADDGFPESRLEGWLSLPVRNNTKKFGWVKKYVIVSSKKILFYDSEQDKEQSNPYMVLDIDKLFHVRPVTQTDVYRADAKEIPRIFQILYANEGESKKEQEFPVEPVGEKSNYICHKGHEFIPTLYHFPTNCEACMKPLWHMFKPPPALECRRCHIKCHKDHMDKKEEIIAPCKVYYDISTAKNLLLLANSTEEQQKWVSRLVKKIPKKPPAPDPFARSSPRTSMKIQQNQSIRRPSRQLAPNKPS
structure (smiles),measurement,setting,value
"COc1cc2c(cn1)N(C)C(=O)[C@@H](NC(=O)c1nc3n(n1)[C@H](c1ccccc1)CC3)CC2 [GNE684, (S)-N-((S)-7-methoxy-1-methyl-2-oxo-2,3,4,5-tetrahydro-1H-pyrido[3,4-b]azepin-3-yl)-5-phenyl-6,7-dihydro-5H-pyrrolo[1,2-b][1,2,4]triazole-2-carboxamide]",inhibition at 10 µM,FRK,4.5%
same,inhibition at 10 µM,DCAMKL2,2%
same,inhibition at 10 µM,p38-delta,3.5%
same,inhibition at 10 µM,CAMKK1,-7.5%
same,inhibition at 10 µM,CK1_gamma1,4%
same,inhibition at 10 µM,ROCK2,1.5%
same,inhibition at 10 µM,JNK2,-4%
same,inhibition at 10 µM,PIM1,1%
same,inhibition at 10 µM,p38-gamma,7%
same,inhibition at 10 µM,Aurora_B,6.5%
same,inhibition at 10 µM,AKT1,2.5%
same,inhibition at 10 µM,SGK2,5.5%
same,inhibition at 10 µM,DYRK1A,2%
same,inhibition at 10 µM,RSK3,6%
same,inhibition at 10 µM,PAK3,6%
same,inhibition at 10 µM,EPHA1,9.5%
same,inhibition at 10 µM,PAK6,4.5%
same,inhibition at 10 µM,CDK2/cyclinA,6.5%
same,inhibition at 10 µM,FGFR1,-2%
same,inhibition at 10 µM,MYLK3(caMLCK),-11%
same,inhibition at 10 µM,TAO2,1%
same,inhibition at 10 µM,ACVR1B,-2%
same,inhibition at 10 µM,CDK9/cyclinT1,9%
